Legend:
Type in all cases: functional
Settings in all cases: read-out: Activity
SR = test: Growth inhibition of human SR cells assessed as cell growth at 10 uM incubated for 48 hrs by sulforhodamine B assay relative to control
SK-MEL-2 = test: Growth inhibition of human SK-MEL-2 cells assessed as cell growth at 10 uM incubated for 48 hrs by sulforhodamine B assay relative to control
EKVX = test: Growth inhibition of human EKVX cells assessed as cell growth at 10 uM incubated for 48 hrs by sulforhodamine B assay relative to control
RXF 393 = test: Growth inhibition of human RXF 393 cells assessed as cell growth at 10 uM incubated for 48 hrs by sulforhodamine B assay relative to control
HCT-15 = test: Growth inhibition of human HCT-15 cells assessed as cell growth at 10 uM incubated for 48 hrs by sulforhodamine B assay relative to control
HCC 2998 = test: Growth inhibition of human HCC 2998 cells assessed as cell growth at 10 uM incubated for 48 hrs by sulforhodamine B assay relative to control
NCI-H23 = test: Growth inhibition of human NCI-H23 cells assessed as cell growth at 10 uM incubated for 48 hrs by sulforhodamine B assay relative to control
SNB-19 = test: Growth inhibition of human SNB-19 cells assessed as cell growth at 10 uM incubated for 48 hrs by sulforhodamine B assay relative to control
BT-549 = test: Growth inhibition of human BT-549 cells assessed as cell growth at 10 uM incubated for 48 hrs by sulforhodamine B assay relative to control
MOLT-4 = test: Growth inhibition of human MOLT-4 cells assessed as cell growth at 10 uM incubated for 48 hrs by sulforhodamine B assay relative to control
HL-60(TB) = test: Growth inhibition of human HL-60(TB) cells assessed as cell growth at 10 uM incubated for 48 hrs by sulforhodamine B assay relative to control
SN12C = test: Growth inhibition of human SN12C cells assessed as cell growth at 10 uM incubated for 48 hrs by sulforhodamine B assay relative to control
NCI-H460 = test: Growth inhibition of human NCI-H460 cells assessed as cell growth at 10 uM incubated for 48 hrs by sulforhodamine B assay relative to control
MDA-MB-435 = test: Growth inhibition of human MDA-MB-435 cells assessed as cell growth at 10 uM incubated for 48 hrs by sulforhodamine B assay relative to control
Malme-3M = test: Growth inhibition of human Malme-3M cells assessed as cell growth at 10 uM incubated for 48 hrs by sulforhodamine B assay relative to control
HOP-62 = test: Growth inhibition of human HOP-62 cells assessed as cell growth at 10 uM incubated for 48 hrs by sulforhodamine B assay relative to control
TK-10 = test: Growth inhibition of human TK-10 cells assessed as cell growth at 10 uM incubated for 48 hrs by sulforhodamine B assay relative to control
NCI-H226 = test: Growth inhibition of human NCI-H226 cells assessed as cell growth at 10 uM incubated for 48 hrs by sulforhodamine B assay relative to control
K562 = test: Growth inhibition of human K562 cells assessed as cell growth at 10 uM incubated for 48 hrs by sulforhodamine B assay relative to control
MCF7 = test: Growth inhibition of human MCF7 cells assessed as cell growth at 10 uM incubated for 48 hrs by sulforhodamine B assay relative to control
CAKI-1 = test: Growth inhibition of human CAKI-1 cells assessed as cell growth at 10 uM incubated for 48 hrs by sulforhodamine B assay relative to control
RPMI-8226 = test: Growth inhibition of human RPMI-8226 cells assessed as cell growth at 10 uM incubated for 48 hrs by sulforhodamine B assay relative to control
OVCAR-8 = test: Growth inhibition of human OVCAR-8 cells assessed as cell growth at 10 uM incubated for 48 hrs by sulforhodamine B assay relative to control
U-251 = test: Growth inhibition of human U-251 cells assessed as cell growth at 10 uM incubated for 48 hrs by sulforhodamine B assay relative to control
UO-31 = test: Growth inhibition of human UO-31 cells assessed as cell growth at 10 uM incubated for 48 hrs by sulforhodamine B assay relative to control
IGROV-1 = test: Growth inhibition of human IGROV-1 cells assessed as cell growth at 10 uM incubated for 48 hrs by sulforhodamine B assay relative to control
A549 = test: Growth inhibition of human A549/ATCC cells assessed as cell growth at 10 uM incubated for 48 hrs by sulforhodamine B assay relative to control
NCI-H322M = test: Growth inhibition of human NCI-H322M cells assessed as cell growth at 10 uM incubated for 48 hrs by sulforhodamine B assay relative to control
MDA-MB-231 = test: Growth inhibition of human MDA-MB-231 cells assessed as cell growth at 10 uM incubated for 48 hrs by sulforhodamine B assay relative to control
HCT-116 = test: Growth inhibition of human HCT-116 cells assessed as cell growth at 10 uM incubated for 48 hrs by sulforhodamine B assay relative to control
OVCAR-5 = test: Growth inhibition of human OVCAR-5 cells assessed as cell growth at 10 uM incubated for 48 hrs by sulforhodamine B assay relative to control
ACHN = test: Growth inhibition of human ACHN cells assessed as cell growth at 10 uM incubated for 48 hrs by sulforhodamine B assay relative to control
OVCAR-3 = test: Growth inhibition of human OVCAR-3 cells assessed as cell growth at 10 uM incubated for 48 hrs by sulforhodamine B assay relative to control
KM12 = test: Growth inhibition of human KM12 cells assessed as cell growth at 10 uM incubated for 48 hrs by sulforhodamine B assay relative to control
M14 = test: Growth inhibition of human M14 cells assessed as cell growth at 10 uM incubated for 48 hrs by sulforhodamine B assay relative to control
NCI-H522 = test: Growth inhibition of human NCI-H522 cells assessed as cell growth at 10 uM incubated for 48 hrs by sulforhodamine B assay relative to control
UACC-62 = test: Growth inhibition of human UACC-62 cells assessed as cell growth at 10 uM incubated for 48 hrs by sulforhodamine B assay relative to control
SF-268 = test: Growth inhibition of human SF-268 cells assessed as cell growth at 10 uM incubated for 48 hrs by sulforhodamine B assay relative to control
T47D = test: Growth inhibition of human T47D cells assessed as cell growth at 10 uM incubated for 48 hrs by sulforhodamine B assay relative to control
HT-29 = test: Growth inhibition of human HT-29 cells assessed as cell growth at 10 uM incubated for 48 hrs by sulforhodamine B assay relative to control

Structure (SMILES)	growth at 10 µM (SR)	growth at 10 µM (SK-MEL-2)	growth at 10 µM (EKVX)	growth at 10 µM (RXF 393)	growth at 10 µM (HCT-15)	growth at 10 µM (HCC 2998)	growth at 10 µM (NCI-H23)	growth at 10 µM (SNB-19)	growth at 10 µM (BT-549)	growth at 10 µM (MOLT-4)	growth at 10 µM (HL-60(TB))	growth at 10 µM (SN12C)	growth at 10 µM (NCI-H460)	growth at 10 µM (MDA-MB-435)	growth at 10 µM (Malme-3M)	growth at 10 µM (HOP-62)	growth at 10 µM (TK-10)	growth at 10 µM (NCI-H226)	growth at 10 µM (K562)	growth at 10 µM (MCF7)	further results
CC(=O)Nc1cc(CO[Si](C)(C)C(C)(C)C)cc(NC(=O)c2ccc(C(=O)Nc3cccc(NC(=O)CCCN(C)C)c3)cc2)c1	108%	102%	91%	95%	85%	93%	90%	100%	84%	91%	81%	99%	95%	96%	88%	92%	104%	85%	93%	77%	growth at 10 µM (CAKI-1): 86%; growth at 10 µM (RPMI-8226): 106%; growth at 10 µM (OVCAR-8): 93%; growth at 10 µM (U-251): 87%; growth at 10 µM (UO-31): 105%; growth at 10 µM (IGROV-1): 90%; growth at 10 µM (A549): 86%; growth at 10 µM (NCI-H322M): 102%; growth at 10 µM (MDA-MB-231): 99%; growth at 10 µM (HCT-116): 99%; growth at 10 µM (OVCAR-5): 80%; growth at 10 µM (ACHN): 90%; growth at 10 µM (OVCAR-3): 104%; growth at 10 µM (KM12): 95%; growth at 10 µM (M14): 90%; growth at 10 µM (NCI-H522): 82%; growth at 10 µM (UACC-62): 89%; growth at 10 µM (SF-268): 94%; growth at 10 µM (T47D): 73%; growth at 10 µM (HT-29): 106%
CC(=O)Nc1cc(CO)cc(NC(=O)c2cccc(NC(=O)CCCN3CCOCC3)c2)c1	105%	97.8%	113%	105%	103%	101%	105%	97.7%	91.7%	102%	110%	101%	108%	103%	112%	103%	94%	96.7%	105%	105%	growth at 10 µM (CAKI-1): 116%; growth at 10 µM (RPMI-8226): 92.1%; growth at 10 µM (OVCAR-8): 107%; growth at 10 µM (U-251): 104%; growth at 10 µM (UO-31): 95.5%; growth at 10 µM (IGROV-1): 106%; growth at 10 µM (A549): 101%; growth at 10 µM (NCI-H322M): 105%; growth at 10 µM (MDA-MB-231): 104%; growth at 10 µM (HCT-116): 98.9%; growth at 10 µM (OVCAR-5): 101%; growth at 10 µM (ACHN): 108%; growth at 10 µM (OVCAR-3): 145%; growth at 10 µM (KM12): 135%; growth at 10 µM (M14): 106%; growth at 10 µM (NCI-H522): 93.1%; growth at 10 µM (UACC-62): 100%; growth at 10 µM (SF-268): 107%; growth at 10 µM (T47D): 96%; growth at 10 µM (HT-29): 106%

Source: ChEMBL document CHEMBL4715697, “Synthesis and biological activity of benzamide DNA minor groove binders” (2016)
